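These data come from cells grown in 96-well plates and exposed to compound for 48 hours at five concentrations. At the GI50, growth is halved. TGI: total growth inhibition.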
Experiments:
Test in all cases: inhibition of tumour cell growth, NCI panel, 48 h; in the data active = GI50 below about 0.43 µM; inactive = the rest
[1] = tested on: 786-0 renal
[2] = tested on: A498 renal
[3] = tested on: A549 NSCLC
[4] = tested on: ACHN renal
[5] = tested on: BT-549 breast
[6] = tested on: CAKI-1 renal
[7] = tested on: CCRF-CEM leukemia
[8] = tested on: COLO 205 colon
[9] = tested on: DU-145 prostate
[10] = tested on: HCC-2998 colon
[11] = tested on: HCT-116 colon
[12] = tested on: HCT-15 colon
[13] = tested on: HL-60(TB) leukemia
[14] = tested on: HOP-62 NSCLC
[15] = tested on: HOP-92 NSCLC
[16] = tested on: HS 578T breast
[17] = tested on: HT29 colon
[18] = tested on: IGROV1 ovarian
[19] = tested on: K-562 leukemia
[20] = tested on: KM12 colon
[21] = tested on: LOX IMVI melanoma
[22] = tested on: M14 melanoma
[23] = tested on: MALME-3M melanoma
[24] = tested on: MCF7 breast
[25] = tested on: MDA-MB-231 breast
[26] = tested on: MDA-MB-435
[27] = tested on: MOLT-4 leukemia
[28] = tested on: NCI-H226 lung
[29] = tested on: NCI-H23 lung
[30] = tested on: NCI-H460 lung
[31] = tested on: NCI-H522 lung
[32] = tested on: NCI/ADR-RES ovarian
[33] = tested on: OVCAR-3 ovarian
[34] = tested on: OVCAR-4 ovarian
[35] = tested on: OVCAR-5 ovarian
[36] = tested on: OVCAR-8 ovarian
[37] = tested on: PC-3 prostate
[38] = tested on: RPMI-8226 leukemia
[39] = tested on: RXF 393 renal
[40] = tested on: SF-268 CNS
[41] = tested on: SF-295 CNS
[42] = tested on: SF-539 CNS
[43] = tested on: SK-MEL-2 melanoma
[44] = tested on: SK-MEL-28 melanoma
[45] = tested on: SK-MEL-5 melanoma
[46] = tested on: SK-OV-3 ovarian
[47] = tested on: SN12C renal
[48] = tested on: SNB-19 CNS
[49] = tested on: SNB-75 CNS
[50] = tested on: SR leukemia
[51] = tested on: SW-620 colon
[52] = tested on: T-47D breast
[53] = tested on: TK-10 renal
[54] = tested on: U251 CNS
[55] = tested on: UACC-257 melanoma
[56] = tested on: UACC-62 melanoma
[57] = tested on: UO-31 renal

CCN(Cc1ccccn1)c1ccc(CO)c(Cl)c1
0.266 µM: TGI [2]
active: GI50 [2] 0.125 µM | GI50 [28] 0.151 µM | GI50 [35] 0.385 µM | GI50 [53] 0.199 µM
0.332 µM: TGI [28]
7.83 µM: TGI [56]
5.5 µM: TGI [52]
> 100 µM: TGI [1] | TGI [3] | TGI [4] | TGI [5] | TGI [6] | TGI [7] | TGI [9] | TGI [10] | TGI [11] | TGI [12] | TGI [13] | TGI [14] | TGI [16] | TGI [17] | TGI [19] | TGI [20] | TGI [21] | TGI [22] | TGI [23] | TGI [24] | TGI [25] | TGI [26] | TGI [27] | TGI [29] | TGI [31] | TGI [32] | TGI [36] | TGI [37] | TGI [38] | TGI [39] | TGI [40] | TGI [41] | TGI [42] | TGI [43] | TGI [44] | TGI [45] | TGI [46] | TGI [47] | TGI [48] | TGI [49] | TGI [50] | TGI [51] | TGI [54] | TGI [57]
0.744 µM: TGI [53]
40.7 µM: TGI [30]
34.7 µM: TGI [34]
3.89 µM: TGI [18]
2.42 µM: TGI [55]
inactive: GI50 [1] > 100 µM | GI50 [3] 16.6 µM | GI50 [4] > 100 µM | GI50 [5] > 100 µM | GI50 [6] 39 µM | GI50 [7] > 100 µM | GI50 [8] 4.65 µM | GI50 [9] > 100 µM | GI50 [10] 18.1 µM | GI50 [11] 1.12 µM | GI50 [12] > 100 µM | GI50 [13] 46 µM | GI50 [14] 46.1 µM | GI50 [15] 10 µM | GI50 [16] > 100 µM | GI50 [17] > 69.8 µM | GI50 [18] 0.68 µM | GI50 [19] 17.3 µM | GI50 [20] > 100 µM | GI50 [21] > 100 µM | GI50 [22] > 100 µM | GI50 [23] > 100 µM | GI50 [24] 2.78 µM | GI50 [25] > 100 µM | GI50 [26] > 100 µM | GI50 [27] > 100 µM | GI50 [29] > 100 µM | GI50 [30] 2.71 µM | GI50 [31] > 100 µM | GI50 [32] 52.2 µM | GI50 [33] 3.75 µM | GI50 [34] 2.32 µM | GI50 [36] 59.4 µM | GI50 [37] > 89.8 µM | GI50 [38] 26.3 µM | GI50 [39] > 28.4 µM | GI50 [40] > 100 µM | GI50 [41] 4.91 µM | GI50 [42] > 100 µM | GI50 [43] > 76.8 µM | GI50 [44] > 100 µM | GI50 [45] 72.1 µM | GI50 [46] 36.1 µM | GI50 [47] > 100 µM | GI50 [48] > 100 µM | GI50 [49] > 51.7 µM | GI50 [50] > 100 µM | GI50 [51] 22.8 µM | GI50 [52] 0.927 µM | GI50 [54] 23.6 µM | GI50 [55] 0.719 µM | GI50 [56] 0.923 µM | GI50 [57] 69.3 µM
16 µM: TGI [8]
> 96.6 µM: TGI [15]
1.58 µM: TGI [35]
23.3 µM: TGI [33]

CC(C)N(Cc1c(F)cccc1F)c1ccc(CO)c(Cl)c1
33.1 µM: TGI [20]
0.195 µM: TGI [55]
0.148 µM: TGI [2]
35.2 µM: TGI [31]
0.186 µM: TGI [18]
29.6 µM: TGI [1]
2.63 µM: TGI [30]
0.398 µM: TGI [56]
13.4 µM: TGI [3]
33.6 µM: TGI [23]
13.6 µM: TGI [24]
0.565 µM: TGI [33]
26.6 µM: TGI [44] | TGI [49]
37.7 µM: TGI [22]
0.215 µM: TGI [28]
27.9 µM: TGI [32]
15 µM: TGI [6]
active: GI50 [2] 0.0488 µM | GI50 [11] 0.0408 µM | GI50 [15] 0.111 µM | GI50 [18] 0.0424 µM | GI50 [19] 0.354 µM | GI50 [24] 0.0655 µM | GI50 [28] 0.0727 µM | GI50 [30] 0.134 µM | GI50 [33] 0.171 µM | GI50 [34] 0.119 µM | GI50 [35] 0.0702 µM | GI50 [41] 0.157 µM | GI50 [51] 0.355 µM | GI50 [52] 0.0502 µM | GI50 [53] 0.0326 µM | GI50 [54] 0.228 µM | GI50 [55] 0.0582 µM | GI50 [56] 0.0748 µM
34.5 µM: TGI [13]
34.6 µM: TGI [26]
19.6 µM: TGI [14]
34.7 µM: TGI [21]
32.4 µM: TGI [29]
13.8 µM: TGI [10]
25.7 µM: TGI [47]
34.9 µM: TGI [40]
0.216 µM: TGI [52]
20.6 µM: TGI [39]
17.5 µM: TGI [17]
17.3 µM: TGI [54]
18.3 µM: TGI [51]
24.7 µM: TGI [36]
2.53 µM: TGI [41]
46.6 µM: TGI [50]
29.1 µM: TGI [12]
0.253 µM: TGI [35]
26.1 µM: TGI [37]
46 µM: TGI [27]
35.8 µM: TGI [25]
0.145 µM: TGI [53]
12.4 µM: TGI [11]
40.8 µM: TGI [16]
inactive: GI50 [1] 13.7 µM | GI50 [3] 0.643 µM | GI50 [4] 15.3 µM | GI50 [5] 18.7 µM | GI50 [6] 1.25 µM | GI50 [7] 17.8 µM | GI50 [8] 1.02 µM | GI50 [9] 12.2 µM | GI50 [10] 2.06 µM | GI50 [12] 11.7 µM | GI50 [13] 3.92 µM | GI50 [14] 0.553 µM | GI50 [16] 17.7 µM | GI50 [17] 2.62 µM | GI50 [20] 15.8 µM | GI50 [21] 18.5 µM | GI50 [22] 19.1 µM | GI50 [23] 17.5 µM | GI50 [25] 15.3 µM | GI50 [26] 17.3 µM | GI50 [27] 19.5 µM | GI50 [29] 14 µM | GI50 [31] 18 µM | GI50 [32] 10.9 µM | GI50 [36] 6.65 µM | GI50 [37] 12.1 µM | GI50 [38] 0.529 µM | GI50 [39] 1.63 µM | GI50 [40] 18.3 µM | GI50 [42] 16.8 µM | GI50 [43] 0.848 µM | GI50 [44] 13 µM | GI50 [45] 12.7 µM | GI50 [46] 2.64 µM | GI50 [47] 12.1 µM | GI50 [48] 19.1 µM | GI50 [49] 13 µM | GI50 [50] 19.4 µM | GI50 [57] 3.14 µM
31.8 µM: TGI [42]
34.3 µM: TGI [5]
25.6 µM: TGI [45]
12.9 µM: TGI [46]
> 52.3 µM: TGI [48]
27.5 µM: TGI [38]
40.2 µM: TGI [7]
3.02 µM: TGI [8]
29.9 µM: TGI [4]
1.73 µM: TGI [15]
25 µM: TGI [57]
27.3 µM: TGI [9]
21.7 µM: TGI [43]
0.832 µM: TGI [34]
17.9 µM: TGI [19]
